{"source": "paper PMC10352257", "about": "“In vivo effects of the alpha-synuclein misfolding inhibitor minzasolmin supports clinical development in Parkinson’s disease” (NPJ Parkinson's Disease, 2023)", "key": {"[1]": {"system": "dopamine transporter (DAT)", "assay": "Immunolabeling of striatal dopamine transporter (DAT), 3-month study", "format": "in vivo, mouse", "settings": "for DAT immunolabeling in dorsal striatum, mean: 3 months", "description": "(§1) A transgenic mouse model of Parkinson’s disease overexpressing human wild-type ASYN under the murine Thy-1 promoter on a mixed C57Bl/6 background was used in the present studies (commonly referred to Line 61)[49]. The Line 61 transgenic mouse model of Parkinson’s disease develops extensive accumulation of ASYN in areas relevant to Parkinson’s disease[49]–[51], neurodegeneration (as evidenced by loss of tyrosine hydroxylase[52],[53] and dopamine transporter immunoreactivity[18] in the striatum), inflammation, and both motor and non-motor functional deficits. Multiple cohorts of mice were transferred from the University of California, San Diego to a Neuropore-funded AAALAC-accredited vivarium facility per a laboratory service agreement between Neuropore Therapies, Inc. and the laboratory of Dr. Eliezer Masliah under institutional animal care and use committee (IACUC) Protocol S02221. All in vivo testing was conducted by Neuropore personnel under Explora Biosciences animal care and use protocol (ACUP) number E15-016-2. Three-month-old male transgenic and age-matched non-transgenic littermate control mice were used and housed up to 5 per cage. Animals received free access to food and water prior to the experiment. The vivarium ambient room temperature was monitored daily and kept within a range of 68–72 degrees Fahrenheit. Animals were kept on a 12:12 diurnal light cycle, with lights on at 0600.\nMinzasolmin was dissolved in a vehicle solution consisting of 40% Captisol (CyDex Pharmaceuticals, Inc.; Kansas, USA) in sterile water and administered at a volume of 0.1 ml/20 g of body weight. Animals received a Monday–Friday daily intraperitoneal injection of vehicle, or 1 or 5 mg/kg minzasolmin for approximately 90 days. Animals received treatment up to and including a final injection 1 h prior to euthanasia. All study solutions were blind coded and experimenters were blinded to genotype and treatment group assignments for the duration of the study, ex vivo evaluations (i.e., neuropathology sample processing and imaging, videotape scoring) and through penultimate data analyses (i.e., data quality control with documented exclusions prior to unblinding; unblinding required for a priori pairwise comparisons).\nAll subjects were euthanized within 1 h of the last treatment and brain and blood were collected. Tissue processing and imaging methods were conducted as described previously[17],[18],[52] and performed under a lab service agreement between UCSD and Neuropore Therapies. All samples were blind coded to genotype and treatment group throughout immune-histological processing and imaging. The right hemibrain was post-fixed in phosphate-buffered 4% paraformaldehyde (pH 7.4) at 4 °C for 48 and then serially sectioned into […] thick […] sections using a vibratome. Sections were free-floated and incubated overnight at 4 °C with primary antibodies. To confirm the specificity of primary antibodies, control experiments were performed in which sections were incubated overnight in the absence of primary antibody, pre-immune serum, or primary antibody pre-adsorbed for 48 h with 20-fold excess of the corresponding peptide. Tissue collection, processing, and imaging methods were conducted as described previously. […] Immunolabeling was evaluated as a corrected optical density across a field of view. […]"}, "Line 61 transgenic mice [2]": {"system": "Line 61 transgenic mice", "assay": "Grip strength, Line 61 transgenic mice", "format": "in vivo, mouse", "settings": "1 and 5 mg/kg, re-test after treatment, two-way ANOVA with repeated measures", "description": "A transgenic mouse model of Parkinson’s disease overexpressing human wild-type ASYN under the murine Thy-1 promoter on a mixed C57Bl/6 background was used in the present studies (commonly referred to Line 61)[49]. The Line 61 transgenic mouse model of Parkinson’s disease develops extensive accumulation of ASYN in areas relevant to Parkinson’s disease[49]–[51], neurodegeneration (as evidenced by loss of tyrosine hydroxylase[52],[53] and dopamine transporter immunoreactivity[18] in the striatum), inflammation, and both motor and non-motor functional deficits. […] The vivarium ambient room temperature was monitored daily and kept within a range of 68–72 degrees Fahrenheit. […]\nNonetheless, a baseline measurement of grip strength is always included to confirm existing deficits in Line 61 transgenic mice and to inform pseudorandomized treatment group assignment (i.e., ensuring that each treatment group started with a similar distribution of grip strength performances). […] The dependent measure, peak strength (in grams of force), was determined per trial and as an average for each animal across trials. […]"}, "Line 61 transgenic mice [3]": {"system": "Line 61 transgenic mice", "assay": "Tolerability in the 3-month administration study", "format": "in vivo", "settings": "1 or 5 mg/kg i.p. once daily for 3 months; no apparent adverse effects on subject health", "description": "as §1, with “[…].” for “Three-month-old male transgenic and age-matched non-transgenic littermate control mice were used and housed up to 5 per cage.”, “0600. […]” for “0600.”"}}, "note": "“Also recorded” adds a separate entry of the source.", "data": [{"compound": "CCCC[C@H](Cc1c[nH]c2ccccc12)NC(=O)c1cnc(N2CCN(C)CC2)s1", "note": "[minzasolmin]", "values": [{"measurement": "change in striatal DAT immunolabeling vs vehicle-treated ASYN transgenic controls", "setting": "[1]; 1 mg/kg, P < 0.05", "result": "statistically significant increases; also recorded: statistically significant normalizations"}, {"measurement": "change in striatal DAT immunolabeling vs vehicle-treated ASYN transgenic controls", "setting": "[1]; 5 mg/kg, P < 0.0001", "result": "statistically significant increases; also recorded: statistically significant normalizations"}, {"measurement": "DAT immunolabeling in dorsal striatum, mean", "setting": "[1]; Line 61 tg/1 mg/kg (first group of that name), Line 61 tg/Vehicle 211.2, Non-tg/Vehicle 292.1, adjusted P 0.0117", "result": 255.3}, {"measurement": "DAT immunolabeling in dorsal striatum, mean", "setting": "[1]; Line 61 tg/1 mg/kg as printed (second group of that name), Line 61 tg/Vehicle 211.2, adjusted P <0.0001", "result": 280.1}, {"measurement": "dose effect on striatal DAT levels, 5 mg/kg compared to 1 mg/kg (towards a greater increase)", "setting": "[1]; P = 0.0754, unpaired two tailed t test", "result": "statistical trend"}, {"measurement": "effect of chronic treatment on grip strength of Line 61 transgenic mice", "setting": "Line 61 transgenic mice [2]", "result": "no statistically significant benefits"}, {"measurement": "tolerability of treatments for the duration of the experiment", "setting": "Line 61 transgenic mice [3]", "result": "well tolerated"}]}]}
